One experiment deals with HUVECs. The experiment in a line: HUVEC growth inhibition assay (crystal violet). Particulars: Homo sapiens; for activity at 30 µM: 72 hours; for inhibition at 30 µM: read-out: Inhibition of HUVECs growth compared with the control. It is filed as cell-based. As for the experimental part:
These compounds were tested in a growth inhibition assay using HUVECs as follows. 5×10^3 Human umbilical vein endothelial cells (HUVECs) were seeded in two 96-well plates (Clonetic # CC3162). Each well contains 100 μl of endothelial cell basal medium-2. After 24 hr, 100 μl endothelial cell growth medium-2 containing a test compound was added to each well of the two plates. The cells in the first plate were immediately stained with 0.5% crystal violet in 20% methanol for 10 minutes, rinsed with water, and air-dried. The cells in the second plate were incubated for 72 hours at 37° C. and then stained in the same manner. Each well in the first and second plates was eluted with 1:1 ethanol and 0.1 M sodium citrate, and absorbance of the resulting solution was measured at 540 nm with an ELISA reader.
Basal and control experiments were also conducted according to the above procedure, except that 100 μl endothelial basal medium-2 and 100 μl endothelial growth medium-2 were added to the second plates, respectively, instead of endothelial cell growth medium-2 containing a test compound.
HUVECs growth in each well was compared with that of the basal experiment according to the following equation: % basal=(Asecond plate−Afirst plate)/(Asecond plate of basal−Afirst plate of basal)×100%
where Asecond plate is the absorbance of the solution in the second plate; Afirst plate is the absorbance of the solution in the first plate; Asecond plate of basal is the absorbance of the solution in the second plate of the basal; and Afirst plate of basal is the absorbance of the solution in the first plate of the basal.

The next experiment has as its system A549 lung tumor cells. Nature of the experiment: Anti-tumor activity, survival of nude mice with A549 lung tumor cells in the pleural space. It is filed as in vivo. Particulars: oral 10 mg/kg/day, 10^6 A549 cells in pleural space, FIG. 2. As for the experimental part: 10^6 A549 lung tumor cells were introduced into the pleural space of nude mice. Compound 1 was administrated to the mice orally (10 mg/kg/day). The survival rates of Compound 1-treated mice and control mice were compared (FIG. 2). The life span (i.e., the medium survival time) of Compound 1-treated mice was about 1.8 times that of control mice, as analyzed by a % T/C value [(median survival time of treatment/median survival time of control)×100].

Experiment [1] concerns bFGF-induced angiogenic effect. Nature of the experiment: Matrigel plug angiogenesis in nude mice, bFGF. It is filed as in vivo. As for the experimental part:
(§1) Nude mice were subcutaneously injected with a Matrigel plug containing 150 ng/mL VEGF or bFGF. Vehicle or Compound 1 was administrated to the mice orally (1 mg/kg/day, 3 mg/kg/day, 10 mg/kg/day, 30 mg/kg/day, or 100 mg/kg/day) for seven days. The angiogenic response was monitored visually through the transparent skin. […] The plugs were removed, fixed in 4% formaldehyde, embedded in paraffin, sectioned at 5-Tm thick for histological analysis, and blood vessel growth quantified by hematoxylin-eosin staining. All photos were taken at 40× magnification.
(§2) In a quantitative analysis of angiogenic effect, nude mice were treated as described above, and the plugs were removed and dissolved. Hemoglobin concentrations were measured using a hemoglobin detection kit (Sigma Chem. Co.) as indices of angiogenesis. Means±S.E. (n=3) were presented (see FIG. 1). Symbol “***” represents P<0.001 that are compared with the control.

Experiment [2] relates to VEGF-induced tube formation of HUVECs. Nature of the experiment: Inhibition of VEGF-induced tube formation of HUVECs on Matrigel. It is filed as cell-based, Human. Particulars: 10 TM compound, VEGF 10 ng/mL, Matrigel 10 mg/mL. Here is the method: (§3) HUVECs were cultured onto a chamber slide, which was pre-coated with Matrigel (10 mg/mL). Cells were treated without Compound 1 (control) or with Compound 1 (10 TM). VEGF (10 ng/mL) or bFGF (10 ng/mL) was added to induce tube formation. All photos were taken at 100× magnification.

The subject of experiment [3] is bFGF-induced tube formation of HUVECs. The experiment in a line: Inhibition of bFGF-induced tube formation of HUVECs on Matrigel. Conditions: 10 TM compound, bFGF 10 ng/mL, Matrigel 10 mg/mL. It is filed as cell-based, Human. Here is the method: as §3
The subject of experiment [4] is bFGF-induced cell proliferation of HUVECs. Nature of the experiment: Inhibition of bFGF-induced DNA synthesis ([3H]thymidine incorporation) in HUVECs. It is filed as cell-based. Conditions: Homo sapiens, HUVEC. As for the experimental part:
(§4) Human umbilical vein endothelial cells (HUVECs) were incubated in the absence of Compound 1 (basal and control) or presence of Compound 1 (with a concentration of […], 0.03 TM, 0.1 TM, 0.3 TM, or 1 TM). Vascular endothelial growth factor (VEGF) or basic fibroblast growth factor (bFGF) was added (except for basal) to induce DNA synthesis, which was detected based on [^3H]thymidine incorporation.

Experiment [5] relates to VEGF-induced angiogenic effect. The experiment in a line: Matrigel plug angiogenesis in nude mice, VEGF. It is filed as in vivo. As for the experimental part:
as §1, §2

Experiment [6] relates to VEGF-induced cell proliferation of HUVECs. The experiment in a line: Inhibition of VEGF-induced DNA synthesis ([3H]thymidine incorporation) in HUVECs. It is filed as cell-based. Particulars: Homo sapiens, HUVEC. Here is the method: as §4
Where [7] appears, read: read-out: HUVEC growth, % of Basal.
Where [8] appears, read: read-out: HUVEC growth, % of Control.

Read-outs that look alike come from different tables or passages of the source.

`OCc1ccc(-c2nn(Cc3ccccc3)c3ccccc23)o1` [Compound 1, 1-benzyl-3-(5′-hydroxymethyl-2′-furyl)indazole]: the activity at 30 µM with HUVECs (setting [7]) came out at 92.2 ± 1.8%; in the experiment with HUVECs (setting [8]), 40.6 ± 0.8%. In the experiment on HUVECs, the inhibition at 30 µM was 60 to 76%. Besides, the “Life span (medium survival time) relative to control mice” value in the experiment on A549 lung tumor cells is reported as “about 1.8 times that of control mice”. Besides, the “bFGF-induced angiogenic effect, blood vessel growth in Matrigel plug (histology)” value in experiment [1] (oral 1-100 mg/kg/day for seven days, plug with 150 ng/mL bFGF) is “effectively inhibited”. In experiment [1] (oral, seven days, n=3, FIG. 1), the “bFGF-induced angiogenic effect, hemoglobin concentration of plug” value is “effectively inhibited”. For the same molecule, the “Inhibition of VEGF-induced formation of networks of elongated endothelial cells” value in experiment [2] was “inhibited”. For the same molecule, the “Inhibition of bFGF-induced formation of networks of elongated endothelial cells” value in experiment [3] is listed as “inhibited”. The concentration for half-maximal inhibition (IC50) is 140 nM in experiment [4] and 90 nM in experiment [6]. Further, the “VEGF-induced angiogenic effect, blood vessel growth in Matrigel plug (histology)” value in experiment [5] (oral 1-100 mg/kg/day for seven days, plug with 150 ng/mL VEGF) is “effectively inhibited”. Also, the “VEGF-induced angiogenic effect, hemoglobin concentration of plug” value in experiment [5] (oral, seven days, n=3, FIG. 1) is “effectively inhibited”.

As to `COC(=O)c1ccc(-c2n[nH]c3ccccc23)o1` [Compound 2], the activity at 30 µM was 193 ± 11.1% in the experiment on HUVECs (setting [7]) and 85 ± 4.9% in the experiment on HUVECs (setting [8]). Besides, the inhibition at 30 µM in the experiment with HUVECs is 15%.

With `OCc1ccc(-c2n[nH]c3ccccc23)o1` [Compound 3], the activity at 30 µM with HUVECs (setting [7]) is 178 ± 14.7%; in the experiment on HUVECs (setting [8]), 78.4 ± 6.5%. In addition, the inhibition at 30 µM in the experiment on HUVECs was in the range of 22 to 40%.

Take `COC(=O)c1ccc(-c2nn(Cc3ccccc3)c3cc(F)ccc23)o1` [Compound 4]: the activity at 30 µM in the experiment on HUVECs (setting [7]) was 195 ± 6.5%; with HUVECs (setting [8]), 85.9 ± 2.8%. Also, the inhibition at 30 µM with HUVECs is 15%.

Take `OCc1ccc(-c2nn(Cc3ccccc3)c3cc(F)ccc23)o1` [Compound 6]: the figures for the activity at 30 µM in the experiment with HUVECs (setting [7]) and in the experiment on HUVECs (setting [8]) were 83.9 ± 4% and 37 ± 1.8%, respectively. For the same molecule, the inhibition at 30 µM in the experiment on HUVECs was in the range of 60 to 76%.

Take `Cc1ccc2c(-c3ccc(CO)o3)nn(Cc3ccccc3)c2c1` [Compound 7]: the activity at 30 µM was 53.9 ± 7.5% with HUVECs (setting [7]) and 23.7 ± 3.3% in the experiment with HUVECs (setting [8]). In addition, the inhibition at 30 µM in the experiment with HUVECs lay in the range of 60 to 76%.

On to `Cc1ccc2c(-c3ccc(C(=O)O)o3)nn(Cc3ccccc3)c2c1` [Compound 8], for which the activity at 30 µM with HUVECs (setting [7]) was 163 ± 22.1%; in the experiment on HUVECs (setting [8]), 71.4 ± 9.7%. The inhibition at 30 µM in the experiment on HUVECs lay within 22 to 40%.

With `O=C(O)c1cccc(-c2nn(Cc3ccccc3)c3ccccc23)c1` [Compound 9], the activity at 30 µM in the experiment on HUVECs (setting [7]) was 172 ± 14.4%; in the experiment with HUVECs (setting [8]) it was 75.8 ± 6.3%. Besides, the inhibition at 30 µM with HUVECs is 22 to 40%.

These data come from patent US20070142449A1, “Angiogenesis inhibitors” (priority 2002, published 2007).
